Patent US9464055B2, “Quinoline derivatives useful as CB-1 inverse agonists” (JANSSEN PHARMACEUTICA NV, priority 2014, dated 2016)

Columns and labels:
hCB2-HEK293 membranes = target: T1, hCB2-HEK293 membranes (Homo sapiens, UniProt P34972); test: CB-2 membrane binding assay ([3H] CP 55,940 displacement); conditions: mean where tested more than once
T1 construct: expressed in transfected cells; host or cells: HEK293

hCB1-CHO-K1 membranes = hCB1-CHO-K1 membranes (Homo sapiens, UniProt P21554); test: CB-1 membrane binding assay ([3H] CP 55,940 displacement)
[1] = target: T2, Human CB1R (Cannabinoid receptor 1) (Homo sapiens, UniProt P21554); test: CB-1 in vitro cAMP (HTRF) functional assay; assay type: cell-based; conditions: mean where tested more than once
T2 construct: host or cells: HEK-293
Text: (§1) CB1 and CB2 receptors are Gi-coupled GPCR. Activation of CB1 and CB2 receptors results in a decrease in cAMP production. An inverse agonist of the CB1 or CB2 receptor results in the opposite effect, an increase of cAMP production. The principle of this assay is based on HTRF® technology (Homogeneous Time-Resolved Fluorescence). The method is a competitive immunoassay between native cAMP produced by cells and the cAMP labeled with the fluorophore d2. The tracer binding is quantified by a Mab anti-cAMP labeled with Eu3+ TBP-NHS Cryptate (supplied as part of the assay kit). The specific signal (i.e. energy transfer) is inversely proportional to the concentration of cAMP in the standard or sample.
(§2) Human CB1R (Cannabinoid receptor 1) was stably transfected in HEK-293 cells (DiscoveRx, cat: 93-0200C1). Human CB2R (Cannabinoid receptor 2) was stably transfected in HEK-293 cells (DiscoveRx, cat: 93-0201C1). Cell cultures were maintained in media: DMEM (Invitrogen Cat#12430-054) supplemented with 10% HI FBS (Invitrogen Cat#16140-071), 1% L-glutamine (Invitrogen Cat#25030-081), 0.2 mg/ml Hygromycin B (Invitrogen Cat#10687-010), 600 μg/mL G418 (Invitrogen Cat#10131-035), and 1× Penn/Strep (Invitrogen 15140-122). After cell expansion, aliquots were cryo-stored in media containing 5% DMSO (Pierce Cat#20684).
(§3) One day prior to experiments media was warmed to 37° C. and the cryo-stored cells were thawed in a 37° C. water bath. The cells were then added to media (10× volume) and the mixture was centrifuged at 1000 RPM for 5 min. The supernate was removed and the cells were re-suspended in media. A sample of the cell suspension was evaluated on a Cedex XS automated cell counter (Innovatis Systems) to determine viable cells/ml. Additional media was added to the cells to achieve a final cell density of 4E5 cells/mL. The cells were then plated into 384 well PDL white solid bottom plates (Greiner, Cat#781945) at 20 μL per well using a Multidrop (Thermo Scientific). Cells were removed from Row P (location of cAMP standards). Two columns of cells were plated into a clear bottom 384 well PDL coated plate (Greiner, Cat#781944) to view confluence the day of the assay. The cell plates were lidded and stored for 15 minutes in a hood, then transferred to an incubator (37° C., 5% CO2, 95% humidity) overnight.
(§4) DMSO was added to all wells of 384 well V bottom polystyrene plate (Greiner, Cat#781280) except to columns 1 and 13, rows O and P and wells M13-M23 and N13-N23. Test compounds (60 μL, 10 mM) were added to Column 1 and 13 (A1 through N1 and A13 through L13). Test compounds were serially diluted 1/3 by transferring and mixing 20 μl sample with 40 μL DMSO.
(§5) DMSO (40 μL) was added to wells of 384 well V bottom polystyrene plate: O2 through O11, M14 through M23, N14 through N23, and O14 through O23. AM630 (also known as [6-iodo-2-methyl-1-[2-(4-morpholinyl)ethyl]-1H-indol-3-yl](4-methoxyphenyl)-methanone, Cayman Chemical, Cat#10006974) (60 μL, 10 mM) was added to O1; and 1-(2,4-dichlorophenyl)-7-[(4-fluorophenyl)methylene]-4,5,6,7-tetrahydro-N-1-piperidinyl-1H-indazole-3-carboxamide (60 μL, 10 mM) was added to N13. The control was serially diluted 1/3 by transferring and mixing 20 μl sample with 40 μL DMSO. This process resulted 11 doses per control, 10 mM to […].
(§6) Cells plated the day prior to the assay in clear bottom plates were viewed on an inverse microscope to ensure confluency in the range of 60-75%. […]

[2] = target: T3, Human CB2R (Cannabinoid receptor 2) (Homo sapiens, UniProt P34972); test: CB-2 in vitro cAMP (HTRF) functional assay; assay type: cell-based; conditions: mean where tested more than once
T3 construct: host or cells: HEK-293
Text: as §1, §2, §3, §4, §5, §6

T1 sequence (P34972 whole entry): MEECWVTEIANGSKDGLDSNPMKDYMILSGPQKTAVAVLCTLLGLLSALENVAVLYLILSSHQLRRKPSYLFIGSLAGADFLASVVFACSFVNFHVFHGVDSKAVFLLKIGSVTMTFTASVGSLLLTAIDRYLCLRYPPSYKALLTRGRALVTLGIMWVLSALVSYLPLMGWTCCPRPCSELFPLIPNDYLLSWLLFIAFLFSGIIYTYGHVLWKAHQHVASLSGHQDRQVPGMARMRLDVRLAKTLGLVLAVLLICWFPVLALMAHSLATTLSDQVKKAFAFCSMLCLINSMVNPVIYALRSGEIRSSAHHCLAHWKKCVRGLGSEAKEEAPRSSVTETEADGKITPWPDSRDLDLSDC
T3 sequence (P34972 whole entry): as above
Chain of hCB1-CHO-K1 membranes (P21554 whole entry): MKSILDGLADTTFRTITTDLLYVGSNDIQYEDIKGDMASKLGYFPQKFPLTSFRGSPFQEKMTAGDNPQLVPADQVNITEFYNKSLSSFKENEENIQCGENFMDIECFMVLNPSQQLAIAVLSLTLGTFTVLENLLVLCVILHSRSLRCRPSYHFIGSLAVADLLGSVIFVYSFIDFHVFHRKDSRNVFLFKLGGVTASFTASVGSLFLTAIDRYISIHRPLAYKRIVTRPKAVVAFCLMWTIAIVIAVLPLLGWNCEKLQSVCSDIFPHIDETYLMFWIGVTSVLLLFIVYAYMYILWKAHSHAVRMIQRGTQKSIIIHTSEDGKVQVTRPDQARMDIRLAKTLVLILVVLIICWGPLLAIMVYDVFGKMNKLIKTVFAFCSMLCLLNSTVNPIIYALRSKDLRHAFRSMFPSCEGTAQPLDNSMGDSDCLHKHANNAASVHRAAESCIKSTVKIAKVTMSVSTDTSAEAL
T2 sequence (P21554 whole entry): as above

IC50 (hCB1-CHO-K1 membranes) | EC50 [2] | Compound | other results
22 nM |  | O=c1cc(/C=C/c2cccc(F)c2)c2cc(C(c3ccc(Cl)cc3)c3ccsc3)ccc2[nH]1 (stereo not drawn) [Compound 16, 6-[(4-Chlorophenyl)(thiophen-3-yl)methyl]-4-[(E)-2-(3-fluorophenyl)ethenyl]quinolin-2(1H)-one] | IC50 (hCB2-HEK293 membranes): > 5000 nM
 | 3400 nM | CCOC(=O)COc1cc(C(c2ccc(Cl)cc2)c2ccc(Cl)cc2)cc2c(NC3CCN(S(=O)(=O)C(F)(F)F)CC3)ccnc12 [Compound 544] | EC50 [1]: 126 nM
 | > 10000 nM | O=C(O)CCN1CCC(Nc2cc(=O)[nH]c3ccc(C(c4ccc(Cl)cc4)c4ccc(Cl)cc4)cc23)CC1 [Compound 115, 3-[4-({6-[Bis(4-chlorophenyl)methyl]-2-oxo-1,2-dihydroquinolin-4-yl}amino)piperidin-1-yl]propanoic acid] | EC50 [1]: > 10000 nM
4.1 nM |  | Clc1ccc(C(c2ccc(Cl)cc2)c2ccc3nccc(/C=C/c4ccccc4)c3c2)cc1 [Compound 503, (E)-6-(bis(4-chlorophenyl)methyl)-4-styrylquinoline] | 
 |  | O=C(O)COc1cc(C(c2ccc(Cl)cc2)c2ccc(Cl)cc2)cc2c(NC3CCN(S(=O)(=O)C(F)(F)F)CC3)ccnc12 [Compound 545] | EC50 [1]: 4900 nM
97.3 nM |  | Clc1ccc(C(c2ccc3nccc(/C=C/c4ccccc4)c3c2)c2cccs2)cc1 (stereo not drawn) [Compound 508, 6-[(4-Chlorophenyl)(thiophen-2-yl)methyl]-4-[(E)-2-phenylethenyl]quinoline] | 
223 nM |  | OC(c1ccc(Cl)cc1)(c1ccsc1)c1ccc2nccc(/C=C/c3ccccc3)c2c1 (stereo not drawn) [Compound 507, (4-Chlorophenyl){4-[(E)-2-phenylethenyl]quinolin-6-yl}thiophen-3-ylmethanol] | 
> 2500 nM |  | O=c1cc(CCc2cccc(Cl)c2)c2cc(C(O)(c3ccc(Cl)cc3)c3nccs3)ccc2[nH]1 (stereo not drawn) [Compound 8, 4-(3-chlorophenethyl)-6-((4-chlorophenyl)(hydroxy)(thiazol-2-yl)methyl)quinolin-2(1H)-one] | 
> 2500 nM |  | Cn1c(=O)cc(CCc2cccc(Cl)c2)c2cc(C(c3ccc(Cl)cc3)c3nccs3)ccc21 (stereo not drawn) [Compound 9, 4-(3-chlorophenethyl)-6-((4-chlorophenyl)(thiazol-2-yl)methyl)-1-methylquinolin-2(1H)-one] | 
332 nM |  | O=c1cc(CCc2cccc(Cl)c2)c2cc(C(c3ccc(Cl)cc3)c3nccs3)ccc2[nH]1 (stereo not drawn) [Compound 11, 4-(3-chlorophenethyl)-6-((4-chlorophenyl)(thiazol-2-yl)methyl)quinolin-2(1H)-one] | 
52.1 nM |  | OC(c1ccc(Cl)cc1)(c1ccc(Cl)cc1)c1ccc2nccc(/C=C/c3ccccc3)c2c1 [Compound 501, (E)-bis(4-chlorophenyl)(4-styrylquinolin-6-yl)methanol] | 
4.4 nM |  | O=c1cc(NC2CCN(S(=O)(=O)C(F)(F)F)CC2)c2cc(C(c3ccc(Cl)cc3)c3nccs3)ccc2[nH]1 (stereo not drawn) [Compound #41, 6-((4-chlorophenyl)(thiazol-2-yl)methyl)-4-((1-((trifluoromethyl)sulfonyl)piperidin-4-yl)amino)quinolin-2(1H)-one] | IC50 (hCB2-HEK293 membranes): > 5000 nM
15.1 nM |  | O=c1cc(/C=C/c2ccc(C(F)(F)F)cc2)c2cc(C(c3ccc(Cl)cc3)c3cccs3)ccc2[nH]1 (stereo not drawn) [Compound 19, 6-[(4-Chlorophenyl)(thiophen-2-yl)methyl]-4-{(E)-2-[4-(trifluoromethyl)phenyl]ethenyl} quinolin-2(1H)-one] | IC50 (hCB2-HEK293 membranes): > 5000 nM
101 nM |  | OC(c1ccc(Cl)cc1)(c1ccc2nccc(/C=C/c3ccccc3)c2c1)c1cccs1 (stereo not drawn) [Compound 506, (4-Chlorophenyl){4-[(E)-2-phenylethenyl]quinolin-6-yl}thiophen-2-ylmethanol] | 
1870 nM |  | COc1ccc(C(O)(c2ccc3nccc(/C=C/c4ccccc4)c3c2)c2nccs2)cc1 (stereo not drawn) [Compound 504, (E)-(4-methoxyphenyl)(4-styrylquinolin-6-yl)(thiazol-2-yl)methanol] | 
 | > 10000 nM | O=C(O)c1ccc(Nc2cc(=O)[nH]c3ccc(C(c4ccc(Cl)cc4)c4ccc(Cl)cc4)cc23)cc1 [Compound 86, 4-({6-[Bis(4-chlorophenyl)methyl]-2-oxo-1,2-dihydroquinolin-4-yl}amino)benzoic acid] | EC50 [1]: > 10000 nM
 | > 10000 nM | O=c1cc(Nc2ccc(C(F)(F)F)cc2)c2cc(C(c3ccc(Cl)cc3)c3ccc(Cl)cc3)cc(Br)c2[nH]1 [Compound 93] | EC50 [1]: 15 nM
 | > 10000 nM | O=C(O)CCCOc1ccc(Nc2cc(=O)[nH]c3ccc(C(c4ccc(Cl)cc4)c4ccc(Cl)cc4)cc23)cc1 [Compound 121, 4-[4-({6-[Bis(4-chlorophenyl)methyl]-2-oxo-1,2-dihydroquinolin-4-yl}amino)phenoxy]butanoic acid] | 
 | 750 nM | O=C(c1ccc(Nc2cc(=O)[nH]c3ccc(C(c4ccc(Cl)cc4)c4ccc(Cl)cc4)cc23)cc1F)N1CCCC1 [Compound 138] | EC50 [1]: 227 nM
 | > 10000 nM | NC(=O)Cn1c(=O)cc(NC2CCN(S(=O)(=O)C(F)(F)F)CC2)c2cc(C(c3ccc(Cl)cc3)c3ccc(Cl)cc3)ccc21 [Compound #90, 2-(6-(bis(4-chlorophenyl)methyl)-2-oxo-4-((1-((trifluoromethyl)sulfonyl)piperidin-4-yl)amino)quinolin-1 (2H)-yl)acetamide] | 
55.1 nM |  | Clc1ccc(C(c2ccc3nccc(/C=C/c4ccccc4)c3c2)c2nccs2)cc1 (stereo not drawn) [Compound 511] | IC50 (hCB2-HEK293 membranes): > 5000 nM
34.6 nM |  | O=c1cc(/C=C/c2ccccc2)c2cc(C(c3ccc(Cl)cc3)c3nccs3)ccc2[nH]1 (stereo not drawn) [Compound 25, (E)-6-((4-chlorophenyl)(thiazol-2-yl)methyl)-4-styrylquinolin-2(1H)-one] | IC50 (hCB2-HEK293 membranes): > 5000 nM
 | > 10000 nM | O=C(O)COc1ccc(Nc2cc(=O)[nH]c3ccc(C(c4ccc(Cl)cc4)c4ccc(Cl)cc4)cc23)cc1 [Compound 109, 2-(4-((6-(bis(4-chlorophenyl)methyl)-2-oxo-1,2-dihydroquinolin-4-yl)amino)phenoxy)acetic acid] | 
 | > 10000 nM | NC(=O)COc1ccc(Nc2cc(=O)[nH]c3ccc(C(c4ccc(Cl)cc4)c4ccc(Cl)cc4)cc23)cc1 [Compound 111, 2-(4-((6-(bis(4-chlorophenyl)methyl)-2-oxo-1,2-dihydroquinolin-4-yl)amino)phenoxy)acetamide] | 
 | > 10000 nM | O=c1cc(Nc2ccc(Cl)c(F)c2)c2cc(C(c3ccc(Cl)cc3)c3ccc(Cl)cc3)ccc2[nH]1 [Compound 83, 6-[Bis(4-chlorophenyl)methyl]-4-[(4-chloro-3-fluorophenyl)amino]quinolin-2(1H)-one] | 

Compound | IC50 (hCB1-CHO-K1 membranes) | EC50 [2] | other results
CC(C)(C)OC(=O)/N=C(/NC(=O)OC(C)(C)C)N1CCC(Nc2cc(=O)[nH]c3ccc(C(c4ccc(Cl)cc4)c4ccc(Cl)cc4)cc23)CC1 [Compound 119, (Z)-tert-butyl ((4-((6-(bis(4-chlorophenyl)methyl)-2-oxo-1,2-dihydroquinolin-4-yl)amino)piperidin-1-yl)((tert-butoxycarbonyl)imino)methyl)carbamate] |  | > 10000 nM | 
